The subject of test [1] is tomato spotted wilt viruses. The experiment in a line: Induction of tobacco against infection by tomato spotted wilt viruses. It counts as in vivo, Nicotiana benthamiana. The following applies: for Disease index / Relative immune effect (%): tobacco; for Disease indexes of the tobacco / Relative immune effects: each treatment in concentration range 0.1-10 nm; for Content of virus proteins: relative protein content in leaves after 3 d, Western blot/Image J. The method, then: Tomato spotted wilt viruses were taken from Yunnan province of China. An initial virus source was placed in a refrigerator at −80° C. for storage and activated by inoculation on Nicotiana benthamiana leaves by using a friction inoculation. Virus plasmids were extracted for transformation of Escherichia coli competent cells. The bacteria were coated on a resistant plate for culture, single colonies were selected for PCR screening, and positive colonies were selected for sequencing and subsequent plasmid extraction. The plasmids with normal sequencing were added into Agrobacterium competent cells and subjected to the Agrobacterium transformation by using an electric shock method. The transformed Agrobacterium liquid was coated on a screening plate with corresponding resistance and cultured at 28±1° C. for 48 h. Single colonies of the Agrobacterium on the transformation plate were selected, placed in a 5-mL LB medium containing the corresponding resistance and cultured overnight at 28° C. and 180 rpm. The bacteria were collected by centrifugation at 6,000 rpm for 2 min, suspended in an Agrobacterium treatment buffer (10 mM MgCl2, 10 mM MES and 10 μM acetosyringone) to enable the OD600 value of the suspension to be 0.5, and treated in a dark place at 28° C. for 3 h for later use.
2-amino-3-indolyl butyric acid was dissolved in distilled water and gradiently diluted with distilled water to obtain solutions of 0 nM, 0.1 nM, 1 nM and 10 nM. Nicotiana benthamiana seeds were sown in a small pot, illuminated at 22±1° C. for 12 h/12 h, and cultured for 5 weeks. Healthy tobacco plants (preferably 8-10 leaves) were selected and sprayed with the 2-amino-3-indolyl butyric acid solutions at the above concentrations on stems and leaves. The treatment was repeated once every 24 h and a total of two treatments was performed. After 24 h, the Agrobacterium liquid with the uniform concentration was extracted by using a 1 mL injector, an injection port of the injector was directly pressed on a small hole on the back of the tobacco leaves, and the bacterium liquid was slowly injected to infiltrate the whole leaves. The infiltrated tobacco was transferred to the environment at 22±1° C. and with 12 h/12 h illumination for culturing. The tobacco was observed and recorded by a microscope after 3 d. Meanwhile, the sample was taken, the gray levels of protein bands were analyzed by using Western blot combined with an Image J software, and the relative protein content of the viruses in the leaves was determined. The disease condition of the tobacco leaves was observed after 15 d and the disease index was recorded according to GB/T23222-2008 Grade and investigation method of tobacco diseases and insect pests. The formula was as follows: […]
Grading standard of diseases caused by tomato spotted wilt viruses (grading and investigation by taking plants as units): • grade 0: the whole plants were disease-free; • grade 1: the veins of interior leaves were obvious or leaves were slightly spotted, and the diseased plants were not obviously dwarfed; • grade 3: one third leaves were spotted but not deformed, or the plants were dwarfed to the heights of more than three fourths of those of normal plants; • grade 5: one third to one half leaves were spotted, or a few leaves were deformed, or main veins were blackened, or the plants were dwarfed to the heights of two thirds to three fourths of those of the normal plants; • grade 7: one half to two thirds leaves were spotted or deformed, or a few main lateral veins were necrotic, or the plants were dwarfed to the heights of one half to two thirds of those of the normal plants; and • grade 9: the leaves of the whole plates were spotted, severely deformed or necrotic, or the diseased plants were dwarfed to the heights of […] of those of the normal plants.
(Immunoblotting shows a protein as a band on a membrane.)

A further test deals with wheat powdery mildew. Nature of the test: Field test of inducing wheat against infection by powdery mildew fungi. It counts as in vivo. The following applies: 1,000 nm. The method, then: Stems and leaves were sprayed with a 2-amino-3-indolyl butyric acid solution (0.02% by volume of a surfactant Tween 20 was added) at the concentration of 1,000 nm in a filed, sprayed with 0.02% by volume of the surfactant tween 20 as an auxiliary agent control and sprayed with 30 g/mu of ATaiLing as a positive control. Each treatment was repeated three times. The disease grade of the wheat after each treatment was investigated. The disease degree was recorded according to the wheat powdery mildew grading standard in the Guidelines for Field Efficacy Trials of Pesticides (I), and the disease indexes and the relative immune effects were calculated by using the same calculation formula as that of those of the tomato spotted wilt. After the harvested wheat seeds were air-dried, the thousand-grain weights of the wheat seeds after different treatments were measured.
Grading standard of wheat powdery mildew (taking leaves as units): • grade 1: the area of the disease spots accounted 5% or less of that of the whole leaves; • grade 3: the area of the disease spots accounted for 6%-15% of that of the whole leaves; and • grade 5: the area of the disease spots accounted for 16%-25% of that of the whole leaves; and • grade 7: the area of the disease spots accounted for 26%-50% of that of the whole leaves; and • grade 9: the area of the disease spots accounted for 50% or more of that of the whole leaves.

The mark [2] stands for this setting: 10 nm, as printed with % in summary.
Setting [3] is: treatment concentration 0.1 nm, 15 d after inoculation.
Setting [4] is: treatment concentration 1 nm, 15 d after inoculation.
[5] abbreviates: compared with the auxiliary agent control.

In the case of `CC(c1c[nH]c2ccccc12)C(N)C(=O)O` (stereo not drawn), the Disease index is recorded as 30.42% in test [1] (setting [2]), 49.70 ± 1.51b in test [1] (setting [3]) and 40.91 ± 3.14c in test [1] (setting [4]). Besides, the “Disease indexes of the tobacco” value in test [1] is listed as “lower than 50”. The molecule further gave a Relative immune effects in test [1] of no less than 45%. Besides, the “Content of virus proteins” value is listed as 0.41 ± 0.005b in test [1] (treatment concentration 0.1 nm) and 0.32 ± 0.014c in test [1] (treatment concentration 1 nm). For the same molecule, the “Relative immune effect (%)” value in test [1] (treatment concentration 0.1 nm) is recorded as 46.68%; in test [1] (treatment concentration 1 nm), 56.11%; in test [1] (treatment concentration 10 nm) it was 67.36%; with wheat powdery mildew it was 40.55%. In the test on wheat powdery mildew, the “Thousand-grain weight” value was 27.39 g. The “Thousand-grain weight (g)” value with wheat powdery mildew is 27.39 ± 0.29a g. For the same molecule, the “Relative immune effect improved by” value in the test with wheat powdery mildew (compared with Altailing control group) is recorded as 12%; with wheat powdery mildew (setting [5]), 40%. For the same molecule, in the test on wheat powdery mildew (setting [5]), the “Thousand-grain weight increased by” value is recorded as 10.80%. Further, in the test with wheat powdery mildew (vs auxiliary agent control group), the “Disease index reduced by” value worked out at 40.55%.
As to `CC1CCNC1C(=O)O` (stereo not drawn) [3-methylpyrrolidine-2-carboxylic acid], the results for the Disease index in test [1] (setting [2]), in test [1] (setting [3]) and in test [1] (setting [4]) were 21.44%, 41.31 ± 0.34b and 27.89 ± 2.16c, respectively. The “Disease indexes of the tobacco” value in test [1] is given as “lower than 50”. This molecule displayed a Relative immune effects in test [1] of no less than 50%. The “Content of virus proteins” value was found to be 0.37 ± 0.003b in test [1] (treatment concentration 0.1 nm) and 0.24 ± 0.001c in test [1] (treatment concentration 1 nm). In addition, the figures for the “Relative immune effect (%)” value in test [1] (treatment concentration 0.1 nm), in test [1] (treatment concentration 1 nm) and in test [1] (treatment concentration 10 nm) were 50.84%, 68.43% and 75.73%, respectively.

The record behind these values is patent US20250204528A1, “USE OF 2-AMINO-3-INDOLYL BUTYRIC ACID OR 3-METHYLPYRROLIDINE-2-CARBOXYLIC ACID AS PLANT IMMUNITY ELICITOR” (NANJING TIANNONG BIOTECHNOLOGY CO., LTD, priority 2021, published 2025).
